Laboratory results as given in patent publication US20250073234A1, “COMBINATION THERAPIES INCLUDING PARP1 INHIBITORS” (Cornell University, priority 2022, published 2025).
“Also recorded” adds a separate entry of the source.

Experiments:
[1] = system: p62 (SQSTM1) in WPMY-1 cells; experiment: p62/SQSTM1 expression in WPMY-1 stromal fibroblasts (immunoblot, qPCR); assay type: cell-based, human
Excerpt: To knock out PARP-1 in WPMY-1 cells, single-guide RNA sequences targeting PARP-1 exon2 were purchased from Synthego and transduced into WPMY-1 cells with recombinant Streptococcus pyogenes Cas9 protein (Truecut Cas9 Protein v2, Thermo), using the Neon Transfection System 1 (Invitrogen) following the manufacturer's protocol and single clones were expanded and screened by protein immunoblotting. To perform AP1-A binding site editing in the SQSTM promoter in WPMY-1 cells, single-guide RNA sequences targeting the human AP1-A binding site (Synthego) was transduced into cells with a Cas9 protein and a single-stranded donor oligonucleotide (ssODN, IDT) using Neon Electroporation System. Single clones were expanded and screened for AP1-A editing by Sanger sequencing. A point mutation to disrupt the API enhancer element in the p62 promoter was introduced by Site Directed Mutagenesis (Stratagene). Knockdown of MCT1, MCT4, FOS, PARP1, PARP2, CD38, ATG5, and SIRT1-7 genes in WPMY-1 cells were achieved by siRNA transfection using Lipofectamine RNAiMAX Transfection Reagent (Invitrogen). Transient overexpression was achieved by transfection using X-tremeGENE HP transfection reagent (Roche). Transfected cells were examined 48 hours after transfection. Establishing stably GFP or RFP expressing cells was achieved by lentivirus-mediated transduction. Lentivirus were produced in HEK293T cells using X-tremeGENE HP transfection reagent (Roche). Virus-containing supernatants were collected 48, 72 and 96 hours after transfection, filtered to eliminate cells, and supplemented with 8 μg/ml polybrene. Cells were infected with three rounds of viral supernatants and selected with puromycin (3 μg/ml). For autophagy or proteasome inhibition, WPMY-1 cells were treated for 12 hours with 100 nM bafilomycin Al or 12 hours with 20 μM of MG132, respectively, or vehicle (DMSO). […] For MCT1 inhibition, WPMY-1 cells were treated for 48 hours with 10 μM of AZD3965. For cJUN inhibition, WPMY-1 cells were treated for 48 hours with 10 μM of SP600125. For calpains and caspases inhibition, WPMY-1 cells were treated for 48 hours with 1-20 μM of Calpeptin (Tocris) or z-VAD-FMK (Tocris), respectively. For protein synthesis inhibition, WPMY-1 cells were treated with 50 μg/ml of cycloheximide (Sigma). Conditioned media (CM) was generated by collecting supernatant on day 3. CM was transferred to a 15 ml BD Falcon tube and centrifuged at 1300 rpm for 10 minutes. The supernatant was sterile filtered using a […] (Millex-GV) with a 10 ml syringe barrel. The samples were stored at […] for future experiments. Fractionation of the CM was achieved using Amicon Ultra centrifugal filters (3KUltracel, Millipore). The supernatant was centrifuged at 4000 rpm for 1 hour. The supernatant fraction that was >3 kDa remained above the filter and that which was <3 kDa passed through to the lower chamber. The >3-kDa fraction was resuspended in DMEM to the pre-filtration volume.

[2] = system: PC3 cells; experiment: Click-iT EdU proliferation of PC3 cells treated with CM from WPMY-1 cells; assay type: cell-based, human; conditions: Olaparib 10 μM + PEGPH20 2.5 μg/ml or CM incubation with Galunisertib 10 μM
Description: WPMY-1 cells were cultured in DMEN containing 10% FBS (basal conditions) or 10% charcoal stripped FBS (ADT conditions), then the cells were treated with vehicle (DMSO), Olaparib 10 μM, Olaparib 10 μM+PEGPH20 2.5 μg/ml for 96 hours, refreshing media and stimuli at 48 hours, conditioned media (CM) was generated by collecting supernatant on day 4. PC3 cells were seeded in a black-walled well (Thermo Fisher) and serum starved overnight. CM from WPMY-1 cells was added to PC3 for 24 h. PC3 were exposed to EdU incorporation for the last 2 hours. Proliferating cells were detected using Click-iT EdU Alexa fluor 488 (Thermo Fisher) following the manufacturer's instructions. Pictures were taken using EVOS M5000 Imaging System and EdU positive were measured using Fiji (Schindelin et al., 2012).

[3] = system: human ovarian cancer PDXs; conditions: Niraparib vs vehicle, GSE163854
Excerpt: (§1) For RNA-Seq, sequencing Fastq files were uploaded to BaseSpace and processed with RNASeq Alignment App (Illumina) to obtain raw reads counts for each gene. For 3′RNA-Seq, read data was processed with the BlueBee Genomics Platform (BlueBee, San Mateo, CA). GenePattern (https://genepattern.broadinstitute.org/gp/pages/index.jsf) was used to collapse gene matrix files (CollapseDataset module) or to assess the statistical significance of differential gene expression (ComparativeMarkerSelection module for microarray data and DESeq2 module for RNA-seq data). […] For ATACSeq, FASTQ files from ATAC-seq reads were aligned to UCSC mm10 with Bowtie2 (bowtie2-very-sensitive-x mm10-1 FILE_merged_R1.fastq-2 FILE_merged_R2.fastq-X 1000-p 12 | samtools view-u-| samtools sort->FILE.bam). […] For motif enrichment analysis in the differential peaks between vehicle and Olaparib-treated cells, p-values were calculated using findMotifsGenome.pl with—size given,—len 6,8,10,12 and—mask program of HOMER v4.10.3. […] For ATACSeq, FASTQ files from ATAC-seq reads were aligned to UCSC mm10 with Bowtie2 (bowtie2-very-sensitive-x mm10-1 FILE_merged_R1.fastq-2 FILE_merged_R2.fastq-X 1000-p 12 | samtools view-u-I samtools sort->FILE.bam). […] For scRNA-seq, raw sequence reads were quality-checked using FastQC software. […]

[4] = system: WPMY-1 cells; experiment: qPCR of CAF / stromal activation markers in WPMY-1 cells; assay type: cell-based, human; conditions: co-treatment with Olaparib
Excerpt: To knock out PARP-1 in WPMY-1 cells, single-guide RNA sequences targeting PARP-1 exon2 were purchased from Synthego and transduced into WPMY-1 cells with recombinant Streptococcus pyogenes Cas9 protein (Truecut Cas9 Protein v2, Thermo), using the Neon Transfection System 1 (Invitrogen) following the manufacturer's protocol and single clones were expanded and screened by protein immunoblotting. To perform AP1-A binding site editing in the SQSTM promoter in WPMY-1 cells, single-guide RNA sequences targeting the human AP1-A binding site (Synthego) was transduced into cells with a Cas9 protein and a single-stranded donor oligonucleotide (ssODN, IDT) using Neon Electroporation System. Single clones were expanded and screened for AP1-A editing by Sanger sequencing. A point mutation to disrupt the API enhancer element in the p62 promoter was introduced by Site Directed Mutagenesis (Stratagene). Knockdown of MCT1, MCT4, FOS, PARP1, PARP2, CD38, ATG5, and SIRT1-7 genes in WPMY-1 cells were achieved by siRNA transfection using Lipofectamine RNAiMAX Transfection Reagent (Invitrogen). Transient overexpression was achieved by transfection using X-tremeGENE HP transfection reagent (Roche). Transfected cells were examined 48 hours after transfection. Establishing stably GFP or RFP expressing cells was achieved by lentivirus-mediated transduction. Lentivirus were produced in HEK293T cells using X-tremeGENE HP transfection reagent (Roche). Virus-containing supernatants were collected 48, 72 and 96 hours after transfection, filtered to eliminate cells, and supplemented with 8 μg/ml polybrene. Cells were infected with three rounds of viral supernatants and selected with puromycin (3 μg/ml). For autophagy or proteasome inhibition, WPMY-1 cells were treated for 12 hours with 100 nM bafilomycin Al or 12 hours with 20 μM of MG132, respectively, or vehicle (DMSO). For PARP1 inhibition, WPMY-1 cells were treated with PJ34 (2 days) or Olaparib (4 days) at the doses indicated in each experiment. For MCT1 inhibition, WPMY-1 cells were treated for 48 hours with 10 μM of AZD3965. For cJUN inhibition, WPMY-1 cells were treated for 48 hours with 10 μM of SP600125. For calpains and caspases inhibition, WPMY-1 cells were treated for 48 hours with 1-20 μM of Calpeptin (Tocris) or z-VAD-FMK (Tocris), respectively. For protein synthesis inhibition, WPMY-1 cells were treated with 50 μg/ml of cycloheximide (Sigma). Conditioned media (CM) was generated by collecting supernatant on day 3. CM was transferred to a 15 ml BD Falcon tube and centrifuged at 1300 rpm for 10 minutes. The supernatant was sterile filtered using a […] (Millex-GV) with a 10 ml syringe barrel. The samples were stored at […] for future experiments. Fractionation of the CM was achieved using Amicon Ultra centrifugal filters (3KUltracel, Millipore). The supernatant was centrifuged at 4000 rpm for 1 hour. The supernatant fraction that was >3 kDa remained above the filter and that which was <3 kDa passed through to the lower chamber. The >3-kDa fraction was resuspended in DMEM to the pre-filtration volume.
Total RNA from mouse tissues, cells and cultured organoids was extracted using the TRIZOL reagent (Invitrogen) and the RNeasy Mini Kit (QIAGEN), followed by DNase treatment. After quantification using a Nanodrop 1000 spectrophotometer (Thermo Scientific), RNA was either processed for RNA-seq or reverse-transcribed using random primers and MultiScribe Reverse Transcriptase (Applied Biosystems). Gene expression was analyzed by amplifying 20 ng of the complementary DNA using the CFX96 Real Time PCR Detection System with SYBR Green Master Mix (BioRad) and primers described in Table S1. The amplification parameters were set at 95° C. for 30 seconds, 58° C. for 30 seconds, and 72° C. for 30 seconds (40 cycles total). Gene expression values for each sample were normalized to the 18s RNA.

[5] = system: BRCA deficient breast tumors; experiment: GSEA of RNAseq data of BRCA deficient breast tumors (GSE125206)
Excerpt: as §1

Cc1[nH]nc(C(F)(F)F)c1Cc1sc2c(c1C(=O)N1C[C@](C)(O)CO1)c(=O)n(C)c(=O)n2C(C)C [AZD3965]
p62 downregulation induced by CM from PC3 cells ([1]; WPMY-1 cells, MCT1 inhibitor 10 μM, PC3 CM 48 h): impaired p62 downregulation in WPMY-1 cells treated with PC3 CM

Cc1cccc(-c2nn3c(c2-c2ccnc4ccc(C(N)=O)cc24)CCC3)n1 [Galunisertib]
Olaparib-induced proliferation (EdU) [2]: completely abolished the stromal proliferation induced by Olaparib

NC(=O)c1ccc[n+]([C@@H]2O[C@H](CO)[C@@H](O)[C@H]2O)c1 [NR, nicotinamide riboside]
rescue of lactate-induced reduction in p62 ([1]; lactate-treated WPMY-1 cells, 48 h, NAD 150 μM, NR 200 μM): completely rescued the lactate-induced reduction in p62

NC(=O)c1cccc2cn(-c3ccc([C@@H]4CCCNC4)cc3)nc12 [Niraparib]
GSEA inflammatory signaling signatures [3]: increased inflammatory related signatures
GSEA signatures of stromal activation [3]: showing stromal activation

CN(C)CC(=O)Nc1ccc2[nH]c(=O)c3ccccc3c2c1 [PJ34]
p62 expression (protein, SQSTM1 mRNA) ([1]; WPMY-1 cells, PJ34 24 h, Olaparib 48 h): reduced the expression of p62 in a dose-dependent manner

CNC(=O)c1ccccc1Oc1nc(Nc2cc(OC)c(OC)c(OC)c2)ncc1Br [SBI-0202965]
Olaparib-induced activation of stroma (qPCR of CAF marker ACTA2) [4]: reverted the Olaparib-induced activation of stroma in a dose dependent manner; also recorded: reverts the stroma activation induced by Olaparib

Cn1ncnc1[C@H]1c2n[nH]c(=O)c3cc(F)cc(c23)N[C@@H]1c1ccc(F)cc1 [Talazoparib]
GSEA inflammatory signaling signatures ([5]; Talazoparib vs saline): increased inflammatory related signatures
GSEA signatures of stromal activation ([5]; Talazoparib vs vehicle): significant enrichment of signatures of stromal activation; also recorded: showing stromal activation
